Reference: patent EP0157762B1, “NEW SUBSTITUTED PIPERIDINOGUANIDINES, PREPARATION PROCESS AND PHARMACEUTICAL COMPOSITIONS CONTAINING THEM” (BOUCHARA S.A., priority 1983, dated 1985)

Experiment: Solubility (qualitative)
Format: physicochemical

- solubilité dans les solvants organiques (organic solvents): peu soluble dans les solvants organiques
- solubilité dans l'eau (water): soluble dans l'eau
SMILES: CNC(=NC(N)=O)NCC1CCN(CCCC(=O)c2ccc(F)cc2)CC1 [Exemple I]
